14 molecules from PubChem BioAssay AID212 (DTP/NCI, 2004) can be followed below.

This assay concerns BDF1 mice, colon carcinoma 38 sc, T/C %. As to the kind of experiment: NCI In Vivo Anticancer Drug Screen. Data for tumor model Colon Carcinoma 38 (subcutaneous) in B6D2F1 (BDF1) mice. To be noted: endpoint: median tumor weight (est.), schedule: Q07DX002 (ip), higher = larger tumour. The procedure, abridged:
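T/C readout: treated group (T) measurement over vehicle control group (C) measurement. Endpoint is survival or tumor size in mice bearing a transplanted tumor.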

Where [1] appears, read: dose: 12.5 mg/kg/injection, vehicle: saline with Tween-80.
[2] abbreviates: dose: 25.0 mg/kg/injection, vehicle: saline with Tween-80.
[3] abbreviates: dose: 12.5 mg/kg/injection, vehicle: saline.
[4] abbreviates: dose: 25.0 mg/kg/injection, vehicle: saline.
Where [5] appears, read: dose: 200.0 mg/kg/injection, vehicle: saline.
[6] abbreviates: dose: 400.0 mg/kg/injection, vehicle: saline.

Each structure is given as a SMILES string. Values joined by “and” are separate entries in the source; they are usually repeats but may differ in a detail not shown here. Equal values may be shown once. Results filed as inconclusive are left out.

For the molecule `CC1(c2ccc(Cl)cc2)OC(=O)C(=Cc2ccc([N+](=O)[O-])s2)C(=O)O1` (centres undefined), the T/C under setting [1] is 77 % of control; the T/C under setting [2] was 63 % of control; the T/C (dose: 50.0 mg/kg/injection, vehicle: saline with Tween-80) is 101 % of control; the T/C (dose: 100.0 mg/kg/injection, vehicle: saline with Tween-80) is 100 % of control; the T/C (dose: 200.0 mg/kg/injection, vehicle: saline with Tween-80) is 79 % of control.
For `NC(=O)C#CC(N)=O`, the T/C (dose: 0.12 mg/kg/injection, vehicle: Klucel (hydroxypropylcellulose) (HPC)) was 88 % of control; the T/C (dose: 0.23 mg/kg/injection, vehicle: Klucel (hydroxypropylcellulose) (HPC)) was 97 % of control; the T/C (dose: 0.45 mg/kg/injection, vehicle: Klucel (hydroxypropylcellulose) (HPC)) is 85 % of control; the T/C (dose: 0.9 mg/kg/injection, vehicle: Klucel (hydroxypropylcellulose) (HPC)) was 91 % of control.
As for `C/C=C(\C)c1cc(=O)c2c(C)cc3c(c2o1)C(=O)c1c(O)c(C2CC(C)(N(C)C)C(O)C(C)O2)cc(C2CC(N(C)C)C(O)C(C)O2)c1C3=O` (centres undefined), the T/C is 117 % of control (dose: 0.62 mg/kg/injection, vehicle: saline); 118 % of control (dose: 1.25 mg/kg/injection, vehicle: saline); 109 % of control and 103 % of control (dose: 62.5 micrograms/kg/injection, vehicle: saline); 81 % of control and 84 % of control (dose: 250.0 micrograms/kg/injection, vehicle: saline); 80 % of control and 85 % of control (dose: 500.0 micrograms/kg/injection, vehicle: saline); 74 % of control and 95 % of control (dose: 1000.0 micrograms/kg/injection, vehicle: saline). Also, under “dose: 2000.0 micrograms/kg/injection, vehicle: saline”, the T/C is 100 % of control.
Turning to `C[CH2][Sn]1([CH2]C)[O]OC(c2ccccc2)[O]1` (centres undefined), the T/C is, setting by setting: (dose: 1.56 mg/kg/injection, vehicle: saline with Tween-80) 121 % of control; (dose: 6.25 mg/kg/injection, vehicle: saline with Tween-80) 237 % of control; under setting [1], 195 % of control; under setting [2], 84 % of control.
Regarding `CC[As](=O)(O)CC`, the T/C by setting is: under setting [3], 101 % of control; under setting [4], 110 % of control; (dose: 100.0 mg/kg/injection, vehicle: saline) 81 % of control; under setting [5], 97 % of control; under setting [6], 110 % of control.
In the case of `CC(C)(C)c1ccc(CN2CCN(C(c3ccccc3)c3ccc(Cl)cc3)CC2)cc1` (centres undefined), the T/C (dose: 8.0 mg/kg/injection, vehicle: Klucel (hydroxypropylcellulose) (HPC)) was 92 % of control; the T/C (dose: 16.0 mg/kg/injection, vehicle: Klucel (hydroxypropylcellulose) (HPC)) was 34 % of control; the T/C (dose: 32.0 mg/kg/injection, vehicle: Klucel (hydroxypropylcellulose) (HPC)) was 82 % of control; the T/C (dose: 64.0 mg/kg/injection, vehicle: Klucel (hydroxypropylcellulose) (HPC)) is 89 % of control; the T/C (dose: 256.0 mg/kg/injection, vehicle: Klucel (hydroxypropylcellulose) (HPC)) was 87 % of control.
With `O=C1C=CC(=O)N1c1ccc(Cl)cc1`, the T/C runs as follows: (dose: 1.25 mg/kg/injection, vehicle: Klucel (hydroxypropylcellulose) (HPC)) 32 % of control; (dose: 10.0 mg/kg/injection, vehicle: Klucel (hydroxypropylcellulose) (HPC)) 61 % of control and 73 % of control; (dose: 20.0 mg/kg/injection, vehicle: Klucel (hydroxypropylcellulose) (HPC)) 60 % of control and 67 % of control.
With `CN(C(=S)S(=O)(=O)C12CC3CC(CC(C3)C1)C2)c1ccccc1`, the T/C is 104 % of control (dose: 3.12 mg/kg/injection, vehicle: Klucel (hydroxypropylcellulose) (HPC)); 92 % of control and 102 % of control (dose: 6.25 mg/kg/injection, vehicle: Klucel (hydroxypropylcellulose) (HPC)); 116 % of control and 93 % of control (dose: 12.5 mg/kg/injection, vehicle: Klucel (hydroxypropylcellulose) (HPC)); 101 % of control and 106 % of control (dose: 50.0 mg/kg/injection, vehicle: Klucel (hydroxypropylcellulose) (HPC)); 115 % of control (dose: 100.0 mg/kg/injection, vehicle: Klucel (hydroxypropylcellulose) (HPC)); 105 % of control (dose: 200.0 mg/kg/injection, vehicle: Klucel (hydroxypropylcellulose) (HPC)).
Consider `O=C(O)C1CC1.[Ag]`, for which the T/C by setting is: (dose: 6.25 mg/kg/injection, vehicle: distilled water + Tween-80) 119 % of control; (dose: 6.25 mg/kg/injection, vehicle: water) 108 % of control; (dose: 12.5 mg/kg/injection, vehicle: water) 84 % of control; (dose: 25.0 mg/kg/injection, vehicle: distilled water + Tween-80) 87 % of control.
As to `CC12CCC3C(CCC4CC(OC(=O)Cc5ccc(N(CCCl)CCCl)cc5)CCC43C)C1CCC(=O)N2` (centres undefined), the T/C (dose: 1.5 mg/kg/injection, vehicle: saline with Tween-80) is 121 % of control; the T/C (dose: 3.0 mg/kg/injection, vehicle: saline with Tween-80) is 77 % of control and 91 % of control; the T/C (dose: 6.0 mg/kg/injection, vehicle: saline with Tween-80) was 47 % of control and 48 % of control; the T/C (dose: 24.0 mg/kg/injection, vehicle: saline with Tween-80) is 27 % of control and 33 % of control.
Turning to `O=c1[nH]c(=O)c2nc(-c3cccnc3)cnc2[nH]1`, the T/C under setting [3] is 116 % of control; the T/C under setting [4] was 78 % of control and 81 % of control; the T/C under setting [5] was 80 % of control and 103 % of control; the T/C under setting [6] is 95 % of control and 97 % of control.
Regarding `CCOC(=O)CC(SP(=S)(OC)OC)C(=O)OCC` (centres undefined), the T/C is, setting by setting: (dose: 50.0 mg/kg/injection, vehicle: suspension in saline) 114 % of control; (dose: 56.0 mg/kg/injection, vehicle: saline with Tween-80) 67 % of control; (dose: 100.0 mg/kg/injection, vehicle: suspension in saline) 119 % of control; (dose: 112.0 mg/kg/injection, vehicle: saline with Tween-80) 102 % of control; (dose: 200.0 mg/kg/injection, vehicle: suspension in saline) 49 % of control; (dose: 225.0 mg/kg/injection, vehicle: saline with Tween-80) 88 % of control. Moreover, for the setting “dose: 400.0 mg/kg/injection, vehicle: suspension in saline”, the T/C was 69 % of control.
For the molecule `Nc1ncnc2c(C3OC(CO)C(O)C3O)[nH]nc12` (centres undefined), the T/C by setting is: (dose: 15.0 mg/kg/injection, vehicle: suspension in saline) 193 % of control; (dose: 30.0 mg/kg/injection, vehicle: suspension in saline) 201 % of control; (dose: 60.0 mg/kg/injection, vehicle: suspension in saline) 168 % of control; (dose: 120.0 mg/kg/injection, vehicle: suspension in saline) 150 % of control.
Take `CCCNC1=C(C)C(=O)C2=C(C1=O)[C@H](COC(N)=O)[C@]1(OC)[C@@H]3N[C@@H]3CN21`: the T/C (dose: 0.78 mg/kg/injection, vehicle: saline) is 72 % of control; the T/C (dose: 1.56 mg/kg/injection, vehicle: saline) is 85 % of control; the T/C (dose: 3.12 mg/kg/injection, vehicle: saline) was 84 % of control; the T/C (dose: 6.0 mg/kg/injection, vehicle: suspension in saline) was 84 % of control; the T/C (dose: 6.25 mg/kg/injection, vehicle: saline) was 25 % of control; the T/C (dose: 12.0 mg/kg/injection, vehicle: suspension in saline) is 34 % of control. In addition, under setting [3], the T/C was 6 % of control.
